The values below come from article PMC10935723 (Chemical Science, 2024).

Molecules are shown by their SMILES.

For one test, the system named is MIA PaCa-2/GemLuc cells. In kind it is cell-based.
For test [1], the system named is patient-derived PDAC organoids. In kind it is cell-based, human.
Test [2] deals with SUIT2, MIA PaCa-2 and MDA-MB-231 cell lines. Put plainly: cells. In kind it is cell-based. Conditions: read-out: IC50 values (range).
The subject of another test is HCT-15. To be noted: read-out: IC50 HCT-15; cited from earlier work.
In a further test the test system is NCI-H460. To be noted: read-out: IC50 NCI-H460; cited from earlier work.
The test system of test [3] is MCF-7 breast cancer cells. Put plainly: cells. In kind it is cell-based. To be noted: Homo sapiens, MCF7, 72 h, read-out: IC50 against MCF-7 breast cancer cells.

Turning to `Cc1cc2cc(O)ccc2[nH]1` [Compound L01, 2-Methyl-1H-indol-5-ol], the “cell cycle arrest (red S/G2/M bioluminescence)” value with MIA PaCa-2/GemLuc cells was “failed to elicit the same effect”. Also, the “antiproliferative activity against patient-derived PDAC organoids” value in test [1] is “no antiproliferative activity”.
Regarding `COc1ccc(/C=C\c2cc(OC)c(OC)c(OC)c2)cc1O` [CA-4, combretastatin A4], the 50% inhibitory concentration (IC50) was 2.4 to 8.7 nM in test [2], 1.7 nM in the test on HCT-15 and 3 nM in the test on NCI-H460.
As for `C[C@]12CC[C@@H]3c4ccc(O)cc4CC[C@H]3[C@@H]1CCC2=O` [estrone (5), Estrone], the half-maximal inhibitory concentration (IC50) in test [3] was over 200000 nM.

One may read the IC50 as the point on the concentration scale where inhibition reaches its midpoint.
